RP-LC retention time data for 59 molecules are collected here from the METLIN SMRT retention time set (Domingo-Almenara et al. 2019).

The nature of this data set: gradient 5% acetonitrile 3 min, to 50% in 2 min, to 85% in 15 min, held 3 min, 100 µL/min. The following applies: column: Zorbax Extend-C18 2.1 x 50 mm; eluents: water / acetonitrile, 0.1% formic acid. A digest of the protocol:
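A Zorbax Extend-C18 column (2.1 × 50 mm, 1.8 μm) run at 100 μL/min with water and acetonitrile, both containing 0.1% formic acid, separated mixtures of ~100 pure standards. The HPLC was coupled to a quadrupole time-of-flight mass spectrometer operated in positive and negative ionization mode, with dead and dwell volumes of 40 μL and 900 μL. Each retention time was taken from a computationally picked adduct peak that was then manually inspected.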
In turn, `Cc1cnc(C2CCC2)n1CC1CCN(C(=O)NC2CCCCC2)CC1` registered an RP-LC retention time of 657 s. Turning to `COC(=O)Cn1cnc2c(-c3ccc(Br)cc3)csc2c1=O`, the RP-LC retention time was determined as 943 s. As to `COc1cc(NC(=O)C2CCCN(S(=O)(=O)c3cc(-c4noc(C)n4)cs3)C2)cc(OC)c1` (centres undefined), the RP-LC retention time was 949 s. With `c1ccc(CN2CCCC(OCc3nc(-c4ccncc4)no3)C2)nc1` (centres undefined) the figure was 577 s; with `COc1ccc(C)cc1NC(=O)C1CCN(S(=O)(=O)c2cn(C)cn2)CC1`, 666 s.

For `Cc1occc1C(=O)N1CCC2(CC1)CC(C)(O)CCO2` (centres undefined), the RP-LC retention time is 645 s. Under `O=C(NC1CCCCCC1)C1CCCN(c2nccnc2Sc2ccccc2)C1` (centres undefined) stands 1170 s; under `O=C(Cn1nc2n(c1=O)CCCC2)NCc1ccccc1Br`, 663 s; under `Cc1ccc(NC(=O)Cn2cnc3nc(N4CCC(C(=O)NC5CC5)CC4)sc3c2=O)c(F)c1`, 655 s.

Turning to `O=S(=O)(c1ccc(Br)cc1)N1CCc2nc[nH]c2C1`, the RP-LC retention time was 615 s. Turning to `CCn1c(SC)nnc1-c1nn(C)c2c1CN(C(C)=O)CC2`, the RP-LC retention time stood at 664 s. Under `Cc1noc(C)c1CCC(=O)Nc1ccccc1NC(=O)c1ccsc1` stands 720 s. For `CCc1ccccc1NC(=O)CN1C(=O)NC2(CCCCC2)C1=O`, the RP-LC retention time was determined as 761 s.

As to `COc1ccccc1C(=O)N1C[C@@H]2C[C@H]1C[C@@H]2NS(C)(=O)=O`, the RP-LC retention time was 632 s. With `Cc1ccc(-c2cc(C(F)(F)F)on2)cc1S(=O)(=O)N1CCN(c2ccccn2)CC1` the figure was 868 s; with `Nn1c(Cc2ccccc2)nnc1Cc1ccccc1`, 744 s; with `Cc1cc(-c2nn3c(COc4ccc(Cl)cc4)nnc3s2)no1`, 948 s.

In the case of `CC(C(=O)N1CCN(C(=O)c2ccco2)CC1)n1c2ccccc2c2cnn(C)c(=O)c21` (centres undefined), the RP-LC retention time worked out at 746 s.

Molecule `Cc1sc2ccn(Cc3ccc(F)cc3)c(=O)c2c1C(=O)NC1CCCCC1` gave an RP-LC retention time of 973 s. `Cc1noc(C)c1S(=O)(=O)N1CCC(N2CC3(CCCCC3)C2c2ccccc2)CC1` (centres undefined): the RP-LC retention time came out at 790 s. `CC(C)Cn1cc(CCNC(=O)C2CCCCC2)c2cccnc21` gave an RP-LC retention time of 817 s. `COc1ccc(S(=O)(=O)N2CCCC(C(=O)Nc3cccc(C)c3)C2)cc1Cl` (centres undefined) came in with an RP-LC retention time of 1060 s.

In the case of `N[C@@H]1CCCN(c2c(/C=C3\SC(=O)NC3=O)cccc2-c2ccccc2)C1`, the RP-LC retention time is 772 s. With `Cc1nnc(-c2cc(C)n(CC(=O)Nc3ccc(Br)cc3)c2C)o1`, the RP-LC retention time was 836 s.

In the case of `O=C(NCc1cccnc1)c1cc2cc(Cl)ccc2[nH]1`, the RP-LC retention time turned out to be 632 s. Consider `CCOc1ccc(N2C(=O)CN(C(C)c3ccccc3)[C@H]3CS(=O)(=O)C[C@H]32)cc1` (some centres undefined), for which the RP-LC retention time amounted to 863 s. The molecule `O=C(NC1CCS(=O)(=O)C1)c1ccc(C(=O)c2ccccc2)cc1` (centres undefined) showed an RP-LC retention time of 675 s.

For `Cn1cc2c3c(cccc31)CN(C(=O)c1ccc(C#N)cc1)CC2`, the RP-LC retention time was 884 s. With `Cc1cc(N2CCCC2)n2nc(-c3ccc(Cl)cc3)c(C)c2n1`, the RP-LC retention time was found to be 799 s. Take `O=C(NCc1ccccc1)N1CCN(Cc2nc3cc(Cl)ccc3o2)CC1`: the RP-LC retention time is 717 s. Under `CSCc1nnc(NC(=O)c2ccc(S(=O)(=O)N3CC(C)OC(C)C3)cc2)o1` (centres undefined) stands 704 s; under `CCNc1cc(C)nc(N2CCN(S(=O)(=O)c3ccc(-c4ccccc4)cc3)CC2)n1`, 829 s. With `CCC(C(=O)NCCN1CCN(C)CC1)n1nc(C)c2sc3ccccc3c2c1=O` (centres undefined) the figure was 629 s.

Molecule `CC(=O)N1CCc2sc(C(=O)NCc3cccc(Br)c3)cc2C1` yielded an RP-LC retention time of 768 s. In turn, `COc1ccc(C)cc1NC(=O)Nc1ccc2c(c1)CCN2S(=O)(=O)c1ccc(C)cc1` registered an RP-LC retention time of 1100 s. For the molecule `CCc1ccc(-c2nc(C3CC(=O)N(c4ccc(C)cc4)C3)no2)cc1` (centres undefined), the RP-LC retention time came to 1110 s.

`O=C(NCc1ccco1)c1ccc2c(c1)nnn2Cc1ccc(F)cc1` gave an RP-LC retention time of 808 s. For `CCOc1ccccc1NC(=O)N1CCC2(CC1)NC(=O)c1ccc(Cl)cc1N2CC`, the RP-LC retention time worked out at 955 s. With `CSc1cccc(NC(=O)Cn2c(=O)n(-c3ccc(F)cc3)c(=O)c3c2cc(C)n3C)c1` the figure was 896 s; with `COc1ccc(CN2C[C@@H]3C(=O)N(CCCN4CCCC4=O)C(=O)[C@@H]3C2)cc1`, 589 s; with `CCN1CCn2cc(S(=O)(=O)Nc3ccc(C)cc3)cc2C1=O`, 723 s.

The molecule `Cn1cccc1C(=O)N1CC(Oc2ccc(-c3nc(-c4ccccc4)no3)cc2)C1` registered an RP-LC retention time of 1170 s. Regarding `COc1ccccc1C(=O)Nc1cnc(-c2cccc(Cl)c2)nc1`, the RP-LC retention time amounted to 1180 s.

Consider `Cc1cc2c(=O)n(CC(=O)Nc3ccc(Cl)cc3)c3cccnc3n2n1`, for which the RP-LC retention time was determined as 745 s. Under `Cc1ccc(CNC(=O)N2CC(Oc3ccc(-c4nc(C)no4)cc3)C2)cc1` stands 861 s; under `C[C@@H]1C(=O)O[C@H]2C[C@@]34C5C[C@@H](C(C)(C)C)[C@]36[C@H](OC(=O)[C@@H]6O)OC4(C(=O)O5)[C@]21O` (some centres undefined), 709 s; under `CCOC(=O)c1cc(C2CC2)nc2c1c(=O)n(Cc1ccc(F)cc1Cl)c(=O)n2C`, 855 s. Under `COc1ccc(N2CC(c3nc(-c4ccc(Br)cc4)no3)CC2=O)c(OC)c1` (centres undefined) stands 1040 s; under `CCn1c(C2CCN(S(=O)(=O)c3cccc(C)c3)C2)nc2cccnc21` (centres undefined), 771 s. For `CCN(C(=O)C1CCN(C(=O)c2ccc(F)cc2)CC1)C1CCCCC1`, the RP-LC retention time turned out to be 885 s. For `Cc1cc2c(cc1S(=O)(=O)N1CCCC1C(=O)Nc1cccc(Cl)c1)OCC(=O)N2` (centres undefined), the RP-LC retention time was determined as 817 s. `COC(=O)c1ncn2c1C(=O)N(C1CC1)C(C)(C(=O)NCc1ccccc1Cl)C2` (centres undefined): the RP-LC retention time came out at 658 s. In the case of `CCC(C)NC(=O)C1CCN(c2cncnc2N2CCCC2)CC1` (centres undefined), the RP-LC retention time was 608 s. With `O=C(c1nc2ccccn2c1-c1ccsc1)N1CCCC1` the figure was 622 s. With `CCc1cc(C(=O)N2CCN(CC)CC2)nc2cc(-c3ccccn3)nn12` the figure was 580 s; with `Brc1ccc(-c2nnc(Cc3nc(-c4ccccc4)no3)o2)cc1`, 1100 s; with `Cn1nc(C(=O)N2CCCC(C(=O)NC3CC3)C2)c2c1CCN(C(=O)c1ccco1)C2` (centres undefined), 594 s. `Cn1nc(C(=O)N2CCOCC2)c2c1CCN(C(=O)Nc1ccccc1)C2`: the RP-LC retention time worked out at 658 s.

`O=C1CCC(CCNS(=O)(=O)c2cc(Cl)ccc2Cl)CCN1CC1CC1` (centres undefined) displayed an RP-LC retention time of 897 s.
